Measurements published in patent US6914045B2, “Glycopeptide antibiotics” (Wyeth Holdings Corporation, priority 2001, dated 2005).
Values after ≈ are worked out from the molar mass of the structure shown.

Columns and labels:
Test in all cases: in vitro antibacterial evaluation, MIC by broth dilution
Type in all cases: cell-based
[1] = test system: Escherichia coli; settings: 18 hours at 35° C.
How it was run: (§1)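 Inoculum 5×10^5 CFU/mL; concentrations 64 to 0.06 μg/mL; MIC defined as lowest inhibitory level. Conducted by broth dilution under NCCLS guidelines.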

[2] = test system: Enterococcus sp.; settings: broth dilution, 18 hours at 35° C.
How it was run: as §1

[3] = test system: Streptococcus sp.; settings: broth dilution, 18 hours at 35° C.
How it was run: as §1

[4] = test system: Staphylococcus sp.; settings: broth dilution, 18 hours at 35° C.
How it was run: as §1

CC(C)=CCCC(C)C1OCC2OC(OC3C(CO)OC(Oc4ccc(CC5NC(=O)C(C(C)c6ccccc6)NC(=O)CNC(=O)C(CO)NC(=O)C(C(O)C6CNC(=N)N6C6OC(CO)C(O)C(O)C6O)NC(=O)C(C(O)C6CNC(=N)N6)NC5=O)cc4)C(O)C3O)C(O)C(O)C2O1 (stereo not shown) [Example 125]
MIC Escherichia coli (ATCC 25922) ([1]; strain ATCC 25922): >64 µg/mL | MIC Escherichia coli (GC 4559) ([1]; strain GC 4559): >64 µg/mL | MIC Escherichia coli (GC 4560) ([1]; strain GC 4560): 32 µg/mL (≈ 22.6 µM) | MIC Enterococcus avium (GC 4558) ([2]; Enterococcus avium (GC 4558)): 32 µg/mL (≈ 22.6 µM) | MIC Enterococcus faecalis (ATCC 29212) ([2]; Enterococcus faecalis (ATCC 29212)): 32 µg/mL (≈ 22.6 µM) | MIC Enterococcus faecalis (GC 2242) ([2]; Enterococcus faecalis (GC 2242)): 32 µg/mL (≈ 22.6 µM) | MIC Enterococcus faecalis (GC 2691) ([2]; Enterococcus faecalis (GC 2691)): 32 µg/mL (≈ 22.6 µM) | MIC Enterococcus faecalis (GC 3059) ([2]; Enterococcus faecalis (GC 3059)): 32 µg/mL (≈ 22.6 µM) | MIC Enterococcus faecalis (GC 4552) ([2]; Enterococcus faecalis (GC 4552)): 32 µg/mL (≈ 22.6 µM) | MIC Enterococcus faecalis (GC 4553) ([2]; Enterococcus faecalis (GC 4553)): 32 µg/mL (≈ 22.6 µM) | MIC Enterococcus faecalis (GC 4554) ([2]; Enterococcus faecalis (GC 4554)): 32 µg/mL (≈ 22.6 µM) | MIC Enterococcus faecalis (GC 6189) ([2]; Enterococcus faecalis (GC 6189)): 32 µg/mL (≈ 22.6 µM) | MIC Enterococcus faecium (GC 2243) ([2]; Enterococcus faecium (GC 2243)): 32 µg/mL (≈ 22.6 µM) | MIC Enterococcus faecium (GC 4556) ([2]; Enterococcus faecium (GC 4556)): 32 µg/mL (≈ 22.6 µM) | MIC Enterococcus faecium (GC 4557) ([2]; Enterococcus faecium (GC 4557)): 16 µg/mL (≈ 11.3 µM) | MIC Enterococcus faecalis (ATCC 29212) ([2]; strain ATCC 29212): 32 µg/mL (≈ 22.6 µM) | MIC Enterococcus faecalis (GC 2242) ([2]; strain GC 2242): 32 µg/mL (≈ 22.6 µM) | MIC Enterococcus faecium (GC 2243) ([2]; strain GC 2243): 32 µg/mL (≈ 22.6 µM) | MIC Enterococcus faecalis (GC 2691) ([2]; strain GC 2691): 32 µg/mL (≈ 22.6 µM) | MIC Enterococcus faecalis (GC 3059) ([2]; strain GC 3059): 32 µg/mL (≈ 22.6 µM) | MIC Enterococcus faecalis (GC 4552) ([2]; strain GC 4552): 32 µg/mL (≈ 22.6 µM) | MIC Enterococcus faecalis (GC 4553) ([2]; strain GC 4553): 32 µg/mL (≈ 22.6 µM) | MIC Enterococcus faecalis (GC 4554) ([2]; strain GC 4554): 32 µg/mL (≈ 22.6 µM) | MIC Enterococcus faecium (GC 4556) ([2]; strain GC 4556): 32 µg/mL (≈ 22.6 µM) | MIC Enterococcus faecium (GC 4557) ([2]; strain GC 4557): 16 µg/mL (≈ 11.3 µM) | MIC Enterococcus avium (GC 4558) ([2]; strain GC 4558): 32 µg/mL (≈ 22.6 µM) | MIC Enterococcus faecalis (GC 6189) ([2]; strain GC 6189): 32 µg/mL (≈ 22.6 µM) | MIC Streptococcus agalactiae (GC 4564) ([3]; Streptococcus agalactiae (GC 4564)): 1 µg/mL (≈ 0.705 µM) | MIC Streptococcus pneumoniae (ATCC 6301) ([3]; Streptococcus pneumoniae (ATCC 6301)): 0.25 µg/mL (≈ 0.176 µM) | MIC Streptococcus pneumoniae (GC 1894) ([3]; Streptococcus pneumoniae (GC 1894)): 0.12 µg/mL (≈ 0.0847 µM) | MIC Streptococcus pneumoniae (GC 4565) ([3]; Streptococcus pneumoniae (GC 4565)): 0.25 µg/mL (≈ 0.176 µM) | MIC Streptococcus pyogenes (GC 4563) ([3]; Streptococcus pyogenes (GC 4563)): 0.5 µg/mL (≈ 0.353 µM) | MIC Streptococcus pneumoniae (ATCC 6301) ([3]; strain ATCC 6301): 0.25 µg/mL (≈ 0.176 µM) | MIC Streptococcus pneumoniae (GC 1894) ([3]; strain GC 1894): 0.12 µg/mL (≈ 0.0847 µM) | MIC Streptococcus pyogenes (GC 4563) ([3]; strain GC 4563): 0.5 µg/mL (≈ 0.353 µM) | MIC Streptococcus agalactiae (GC 4564) ([3]; strain GC 4564): 1 µg/mL (≈ 0.705 µM) | MIC Streptococcus pneumoniae (GC 4565) ([3]; strain GC 4565): 0.25 µg/mL (≈ 0.176 µM) | MIC Staphylococcus aureus (ATCC 29213) [4]: 32 µg/mL (≈ 22.6 µM) | MIC Staphylococcus aureus (GC 1131) [4]: 32 µg/mL (≈ 22.6 µM) | MIC Staphylococcus aureus (GC 3051) [4]: 32 µg/mL (≈ 22.6 µM) | MIC Staphylococcus aureus (GC 3053) [4]: 32 µg/mL (≈ 22.6 µM) | MIC Staphylococcus aureus (GC 4541) [4]: 8 µg/mL (≈ 5.64 µM) | MIC Staphylococcus aureus (GC 4542) [4]: 32 µg/mL (≈ 22.6 µM) | MIC Staphylococcus aureus (GC 4544) [4]: 32 µg/mL (≈ 22.6 µM) | MIC Staphylococcus aureus (GC 4545) [4]: 32 µg/mL (≈ 22.6 µM) | MIC Staphylococcus aureus (GC 1131) ([4]; inoculum 5×10^5 CFU/mL, strain GC 1131): 32 µg/mL (≈ 22.6 µM) | MIC Staphylococcus aureus (ATCC 29213) ([4]; strain ATCC 29213): 32 µg/mL (≈ 22.6 µM) | MIC Staphylococcus aureus (GC 3051) ([4]; strain GC 3051): 32 µg/mL (≈ 22.6 µM) | MIC Staphylococcus aureus (GC 3053) ([4]; strain GC 3053): 32 µg/mL (≈ 22.6 µM) | MIC Staphylococcus aureus (GC 4541) ([4]; strain GC 4541): 8 µg/mL (≈ 5.64 µM) | MIC Staphylococcus aureus (GC 4542) ([4]; strain GC 4542): 32 µg/mL (≈ 22.6 µM) | MIC Staphylococcus aureus-SMITH (GC 4543) ([4]; strain GC 4543): 32 µg/mL (≈ 22.6 µM) | MIC Staphylococcus aureus (GC 4544) ([4]; strain GC 4544): 32 µg/mL (≈ 22.6 µM) | MIC Staphylococcus aureus (GC 4545) ([4]; strain GC 4545): 32 µg/mL (≈ 22.6 µM) | MIC Staphylococcus haemolyticus (GC 4546) ([4]; strain GC 4546): 32 µg/mL (≈ 22.6 µM) | MIC Coagulase Negative Staphylococcus (GC 4547) ([4]; strain GC 4547): 32 µg/mL (≈ 22.6 µM) | MIC Coagulase Negative Staphylococcus (GC 4548) ([4]; strain GC 4548): 32 µg/mL (≈ 22.6 µM) | MIC Coagulase Negative Staphylococcus (GC 4549) ([4]; strain GC 4549): 32 µg/mL (≈ 22.6 µM) | MIC Coagulase Negative Staphylococcus (GC 4551) ([4]; strain GC 4551): 32 µg/mL (≈ 22.6 µM) | MIC Coagulase Negative Staphylococcus (GC 6257) ([4]; strain GC 6257): 32 µg/mL (≈ 22.6 µM) | MIC Staphylococcus aureus-SMITH (GC 4543) ([4]; strain SMITH GC 4543): 32 µg/mL (≈ 22.6 µM)
